Source: the supplement of paper PMC7017272
± gives the standard deviation of the averaged measurements.

What was measured:
Details in all cases: treatment time: 3 days
UT-SCC-8 = assay: drug sensitivity score (DSS); higher = more sensitive; extreme values may be limits of the assay
Outline: (§1)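 HPV-negative HNSCC cell lines were seeded at 500 cells/well in 384-well plates on plastic, on Matrigel- or Myogel-coated wells (500 µg/mL), or embedded in Matrigel or Myogel plus rat collagen I. Compounds were given at five 10-fold concentrations for 3 days, and viability was read by CellTiter-Glo 2.0 luminescence. Signals were normalised to vehicle (0.1% DMSO) and cell-killing control wells. Percent-inhibition dose–response curves were fitted in the FIMM pipeline to derive IC50, maximal inhibition and drug sensitivity score.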

UT-SCC-73 = assay: as above
Outline: as §1

UT-SCC-24B = assay: as above
Outline: as §1

UT-SCC-40 = assay: as above
Outline: as §1

UT-SCC-28 = assay: as above
Outline: as §1

UT-SCC-42B = assay: as above
Outline: as §1

UT-SCC-81 = assay: as above
Outline: as §1

UT-SCC-106A = assay: as above
Outline: as §1

UT-SCC-42A = assay: as above
Outline: as §1

UT-SCC-44 = assay: as above
Outline: as §1

UT-SCC-14 = assay: as above
Outline: as §1

UT-SCC-24A = assay: drug sensitivity score (DSS); higher = more sensitive
Method: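 HNSCC cell lines (500 cells/well, 384-well) were cultured on plastic, on top of (2D) or embedded (3D) in Matrigel or human leiomyoma matrix Myogel (500 ug/mL; Myogel 3D mixed with rat collagen I). Cells were treated for 3 days with 5 ten-fold concentrations of each drug, and viability was read by CellTiter-Glo. Suffixes _1/_2/_3 on drug names are replicates.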

[1] = culture condition: embedded in Matrigel
[2] = culture condition: embedded in Myogel + collagen I
[3] = culture condition: on top of Matrigel
[4] = culture condition: on top of Myogel
[5] = culture condition: plastic 2D (no matrix)

Compound: COc1cc2ncnc(Nc3ccc(F)c(Cl)c3)c2cc1OCCCN1CCOCC1 [Gefitinib]
- drug sensitivity score (UT-SCC-8; [1]): 14 ± 4.7 DSS
- drug sensitivity score (UT-SCC-8; [2]): 0 DSS
- drug sensitivity score (UT-SCC-8; [3]): 7.87 ± 2.8 DSS
- drug sensitivity score (UT-SCC-8; [4]): 2.4 ± 3.8 DSS
- drug sensitivity score (UT-SCC-8; [5]): 5.97 ± 4.5 DSS
- drug sensitivity score (UT-SCC-73; [1]): 0.0667 ± 0.12 DSS
- drug sensitivity score (UT-SCC-73; [2]): 1.73 ± 3 DSS
- drug sensitivity score (UT-SCC-73; [3]): 1.23 ± 2.1 DSS
- drug sensitivity score (UT-SCC-73; [4]): 0.133 ± 0.15 DSS
- drug sensitivity score (UT-SCC-73; [5]): 0.2 ± 0.27 DSS
- drug sensitivity score (UT-SCC-24B; [1]): 12.5 ± 1.3 DSS
- drug sensitivity score (UT-SCC-24B; [2]): 10.1 ± 3.4 DSS
- drug sensitivity score (UT-SCC-24B; [3]): 12.4 ± 1 DSS
- drug sensitivity score (UT-SCC-24B; [4]): 5.73 ± 1.2 DSS
- drug sensitivity score (UT-SCC-24B; [5]): 17.5 ± 0.64 DSS
- drug sensitivity score (UT-SCC-40; [1]): 6.87 ± 1.9 DSS
- drug sensitivity score (UT-SCC-40; [2]): 2.33 ± 2.6 DSS
- drug sensitivity score (UT-SCC-40; [3]): 3.7 ± 0.7 DSS
- drug sensitivity score (UT-SCC-40; [4]): 0.433 ± 0.51 DSS
- drug sensitivity score (UT-SCC-40; [5]): 0.267 ± 0.25 DSS
- drug sensitivity score (UT-SCC-28; [1]): 0.767 ± 1.3 DSS
- drug sensitivity score (UT-SCC-28; [2]): 0 DSS
- drug sensitivity score (UT-SCC-28; [3]): 0.433 ± 0.75 DSS
- drug sensitivity score (UT-SCC-28; [5]): 0 DSS
- drug sensitivity score (UT-SCC-42B; [1]): 12.3 ± 6.1 DSS
- drug sensitivity score (UT-SCC-42B; [3]): 2.67 ± 4.6 DSS
- drug sensitivity score (UT-SCC-42B; [4]): 0 DSS
- drug sensitivity score (UT-SCC-42B; [5]): 1.07 ± 1.7 DSS
- drug sensitivity score (UT-SCC-81; [1]): 23.2 ± 0.32 DSS
- drug sensitivity score (UT-SCC-81; [2]): 1.57 ± 2.7 DSS
- drug sensitivity score (UT-SCC-81; [3]): 10.8 ± 5.8 DSS
- drug sensitivity score (UT-SCC-81; [4]): 1 ± 1.1 DSS
- drug sensitivity score (UT-SCC-81; [5]): 3.83 ± 5.2 DSS
- drug sensitivity score (UT-SCC-106A; [1]): 4.63 ± 3.7 DSS
- drug sensitivity score (UT-SCC-106A; [2]): 0.4 ± 0.69 DSS
- drug sensitivity score (UT-SCC-106A; [3]): 8.13 ± 3.1 DSS
- drug sensitivity score (UT-SCC-106A; [4]): 0.1 ± 0.17 DSS
- drug sensitivity score (UT-SCC-106A; [5]): 7.53 ± 1 DSS
- drug sensitivity score (UT-SCC-42A; [2]): 0 DSS
- drug sensitivity score (UT-SCC-42A; [3]): 5 ± 4 DSS
- drug sensitivity score (UT-SCC-42A; [4]): 1.43 ± 1.6 DSS
- drug sensitivity score (UT-SCC-42A; [5]): 2 ± 1.4 DSS
- drug sensitivity score (UT-SCC-44; [1]): 0 DSS
- drug sensitivity score (UT-SCC-44; [2]): 0.567 ± 0.98 DSS
- drug sensitivity score (UT-SCC-44; [3]): 0.5 ± 0.7 DSS
- drug sensitivity score (UT-SCC-44; [4]): 1.03 ± 1.5 DSS
- drug sensitivity score (UT-SCC-44; [5]): 0.167 ± 0.29 DSS
- drug sensitivity score (UT-SCC-14; [2]): 1.63 ± 2.7 DSS
- drug sensitivity score (UT-SCC-14; [3]): 3.87 ± 2.3 DSS
- drug sensitivity score (UT-SCC-14; [4]): 3.33 ± 3 DSS
- drug sensitivity score (UT-SCC-14; [5]): 2.6 ± 4.5 DSS
- drug sensitivity score (UT-SCC-24A; [1]): 21.1 ± 1.1 DSS
- drug sensitivity score (UT-SCC-24A; [3]): 17 ± 2.1 DSS
- drug sensitivity score (UT-SCC-24A; [4]): 3.27 ± 2.5 DSS
- drug sensitivity score (UT-SCC-24A; [5]): 16.4 ± 3.7 DSS
